Experimental data published in patent US20230012368A1 (Hoffmann-La Roche Inc., priority 2018, published 2023).
Counter-ions that a name gives are not always drawn.

What follows are compounds tested on Acinetobacter baumannii ATCC 17978 (assay: Antimicrobial susceptibility testing: 90% growth inhibitory concentration (IC90) determination). Conditions: 90% growth inhibitory concentration; Acinetobacter baumannii ATCC17978; Iso-Sensitest broth, OD 600 nm over 16h; read-out: ATCC17978 IC90.
Type: cell-based
In short: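 Growth of the Acinetobacter baumannii strain was followed by optical density at 600 nm every 20 minutes for 16h at 35±2° C. Inoculum was ~5×10^(5) CFU/ml in Iso-Sensitest medium, with twofold compound dilutions (e.g. 50 to 0.097 μM final). The 90% inhibitory concentration was derived in log-phase growth.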

SMILES	IC90 [µM]
CCc1cc(Nc2nccn3c(-c4ccc(OC)c(F)c4F)cnc23)ccc1C(=O)NCCN [Example 117, N-(2-aminoethyl)-4-((3-(2,3-difluoro-4-methoxyphenyl)imidazo[1,2-a]pyrazin-8-yl)amino)-2-ethylbenzamide dihydrochloride]	0.56
CCc1cc(Nc2nccn3c(-c4ccc(Oc5ncccn5)c(F)c4F)cnc23)ccc1C(=O)NCCNC(=O)[C@H](N)CCCNC(=N)N [Example 437, N-[2-[[(2R)-2-amino-5-guanidino-pentanoyl]amino]ethyl]-4-[[3-(2,3-difluoro-4-pyrimidin-2-yloxy-phenyl)imidazo[1,2-a]pyrazin-8-yl]amino]-2-ethyl-benzamide; formic acid]	0.41

Same assay, conditions: Acinetobacter baumannii, ATCC17978, 16 h, 90% growth inhibitory concentration; Acinetobacter baumannii ATCC17978; Iso-Sensitest broth, OD 600 nm over 16h; read-out: ATCC17978 IC90

SMILES	IC90 [µM]
CCc1cc(Nc2nccn3c(-c4ccc(OC)c(F)c4F)cnc23)ccc1C(=O)N[C@@H](C)CNC(=O)[C@@H](N)CCCCN [Example 453, N-[(1S)-2-[[(2S)-2,6-diaminohexanoyl]amino]-1-methyl-ethyl]-4-[[3-(2,3-difluoro-4-methoxy-phenyl)imidazo[1,2-a]pyrazin-8-yl]amino]-2-ethyl-benzamide]	0.32
CCc1cc(Nc2nccn3c(-c4ccc(OC)c(F)c4F)cnc23)ccc1C(=O)NCCCCCc1nnc2ccccn12 [Example 533, N-(5-([1,2,4]triazolo[4,3-a]pyridin-3-yl)pentyl)-4-((3-(2,3-difluoro-4-methoxyphenyl)imidazo[1,2-a]pyrazin-8-yl)amino)-2-ethylbenzamide]	0.1
COc1ccc(-c2cnc3c(Nc4ccc(C(=O)N(C)CCn5ccnc5)c(C)c4)nccn23)cc1F [Example 105, 4-[[3-(3-fluoro-4-methoxy-phenyl)imidazo[1,2-a]pyrazin-8-yl]amino]-N-(2-imidazol-1-ylethyl)-N,2-dimethyl-benzamide]	0.82
CCc1cc(Nc2nccn3c(-c4ccc(OC)c(F)c4F)cnc23)ccc1C(=O)NCCN1CCC(C(N)=O)C1 (stereo not drawn) [Example 561, 1-[2-[[4-[[3-(2,3-difluoro-4-methoxy-phenyl)imidazo[1,2-a]pyrazin-8-yl]amino]-2-ethyl-benzoyl]amino]ethyl]pyrroli-dine-3-carboxamide]	0.19
COc1ccc(-c2cnc3c(Nc4ccc(C(=O)N(C)C)c(C)c4)nccn23)cc1 [Example 13, 4-((3-(4-methoxyphenyl)imidazo [1,2-a]pyrazin-8-yl)amino)-N,N,2-trimethylbenzamide]	0.24
N#CCOc1ccc(-c2cnc3c(Nc4ccc(C(=O)NCCCCCN)c(Cl)c4)nccn23)c(F)c1F [Example 496, N-(5-aminopentyl)-2-chloro-4-[[3-[4-(cyanomethoxy)-2,3-difluorophenyl]imidazo[1,2-a]pyrazin-8-yl]amino]benzamide]	0.023
Cc1cc(Nc2nccn3c(-c4ccc(OCC#N)c(F)c4F)cnc23)ccc1C(=O)NCCNC(=O)[C@@H]1C[C@](C)(O)CN1 [Example 133, (2S,4S)-N-[2-[[4-[[3-[4-(cyanomethoxy)-2,3-difluoro-phenyl]imidazo[1,2-a]pyrazin-8-yl]amino]-2-methyl-benzoyl]amino]ethyl]-4-hydroxy-4-methyl-pyrrolidine-2-carboxamide formate]	0.09
COc1ccc(-c2cnc3c(Nc4ccc(C(=O)NCC5(O)CCNC5)c(C)c4)nccn23)cc1F (stereo not drawn) [Example 286, 4-[[3-(3-fluoro-4-methoxyphenyl)imidazo[1,2-a]pyrazin-8-yl]amino]-N-[(3-hydroxypyrrolidin-3-yl)methyl]-2-methylbenzamide;2,2,2-trifluoroacetic acid]	2.7
CCc1cc(Nc2nccn3c(-c4ccc(OC)c(F)c4F)cnc23)ccc1C(=O)NCCNC(=O)[C@@H](N)CCCNC1=NCCN1 [Example 128, N-[2-[[(2S)-2-amino-5-(4,5-dihydro-1H-imidazol-2-ylamino)pentanoyl]amino]ethyl]-4-[[3-(2,3-difluoro-4-methoxy-phenyl)imidazo[1,2-a]pyrazin-8-yl]amino]-2-ethyl-benzamide formate]	0.24
CNC(=O)c1ccc(Nc2nccn3c(-c4ccc(OC(F)F)cc4)cnc23)cc1[N+](=O)[O-] [Example 54, 4-((3-(4-(difluoromethoxy)phenyl)imidazo[1,2-a]pyrazin-8-yl)amino)-N-methyl-2-nitrobenzamide]	0.82
CCc1cc(Nc2nccn3c(-c4ccc(OC(F)F)c(F)c4F)cnc23)ccc1C(=O)NCCCO [Example 293, 4-[[3-[4-(difluoromethoxy)-2,3-difluorophenyl]imidazo[1,2-a]pyrazin-8-yl]amino]-2-ethyl-N-(3-hydroxypropyl)benzamide]	0.12
Cc1cc(Nc2nccn3c(-c4ccc(OC(F)F)cc4)cnc23)ccc1C(=O)N(C)CC1(O)CCNCC1 [Example 260, 4-[[3-[4-(difluoromethoxy)phenyl]im-idazo[1,2-a]pyrazin-8-yl]amino]-N-[(4-hydroxypiperidin-4-yl)methyl]-N,2-dimethylbenzamide;hydrochlo-ride]	4.3
CCc1cc(Nc2nccn3c(-c4ccc(Oc5ncccn5)c(F)c4F)cnc23)ccc1C(=O)NCCCCCN [Example 558, N-(5-aminopentyl)-4-((3-(2,3-difluoro-4-(pyrimidin-2-yloxy)phenyl)imidazo[1,2-a]pyrazin-8-yl)amino)-2-ethylbenzamide formate]	0.19
CCc1cc(Nc2nccn3c(-c4ccc(OC(F)F)c(F)c4F)cnc23)ccc1C(=O)NCC1CCN(CC2CNC2)CC1 [Example 547, N-((1-(azetidin-3-ylmethyl)piperidin-4-yl)methyl)-4-((3-(4-(difluoromethoxy)-2,3-difluorophenyl)imidazo[1,2-a]pyrazin-8-yl)amino)-2-ethylbenzamide formate]	0.16
CCc1cc(Nc2nccn3c(-c4ccc(OC)c(F)c4F)cnc23)ccc1C(=O)NCCCNC(=O)C(CNC(=N)N)NC(=O)[C@@H](N)CCC(=O)O (mixture of isomers) [Example 155, (4S)-4-Amino-5-((1-((3-(4-((3-(2,3-difluoro-4-methoxyphenyl)imidazo[1,2-a]pyrazin-8-yl)amino)-2-ethylbenzamido)propyl)amino)-3-guanidino-1-oxopropan-2-yl)amino)-5-oxopentanoic acid trihydrochloride (Epimers 1:1)]	0.34
CCc1cc(Nc2nccn3c(-c4ccc(OC)c(F)c4F)cnc23)ccc1C(=O)NC/C=C/CN [Example 536, N-[(E)-4-aminobut-2-enyl]-4-[[3-(2,3-difluoro-4-methoxyphenyl)imidazo[1,2-a]pyrazin-8-yl]amino]-2-ethylbenzamide]	0.024
C=CCNC(=O)c1ccc(Nc2nccn3c(-c4ccc(OC)c(F)c4F)cnc23)cc1CC [Example 329, 4-[[3-(2,3-difluoro-4-methoxyphenyl)imidazo[1,2-a]pyrazin-8-yl]amino]-2-ethyl-N-prop-2-enylbenzamide]	0.14
CCc1cc(Nc2nccn3c(-c4ccc(OC)c(F)c4F)cnc23)ccc1C(=O)NC1(CNC(=O)[C@@H](N)CCCCN)CC1 [Example 484, N-[1-[[[(2S)-2,6-diaminohexanoyl]amino]meth-yl]cyclopropyl]-4-[[3-(2,3-difluoro-4-methoxy-phenyl)imidazo[1,2-a]pyrazin-8-yl]amino]-2-ethyl-benzamide]	0.28
Cc1cc(Nc2nccn3c(-c4ccc(OC(F)F)cc4)cnc23)ccc1C(=O)NC(C)(C)CN1CCOCC1 [Example 222, 4-[[3-[4-(difluoromethoxy)phenyl]im-idazo[1,2-a]pyrazin-8-yl]amino]-2-methyl-N-(2-methyl-1-morpholin-4-ylpropan-2-yl)benzamide]	1.1
CCc1cc(Nc2nccn3c(-c4ccc(OCC#N)c(F)c4F)cnc23)ccc1C(=O)NCCNC(=O)[C@@H](N)CCCCN [Example 143, 4-[[3-[4-(cyanomethoxy)-2,3-difluoro-phenyl]imidazo[1,2-a]pyrazin-8-yl]amino]-N-[2-[[(2S)-2,6-diaminohexanoyl]amino]ethyl]-2-ethyl-benzamide formate]	0.16
CNC(=O)c1ccc(Nc2nccn3c(-c4ccc(OC(F)F)cc4)cnc23)cc1CCO [Example 190, 4-[[3-[4-(difluoromethoxy)phenyl]im-idazo[1,2-a]pyrazin-8-yl]amino]-2-(2-hydroxyethyl)-N-methylbenzamide]	0.33
CCc1cc(Nc2nccn3c(-c4ccc(Oc5ccccn5)c(F)c4F)cnc23)ccc1C(=O)NCCC(=O)N1CCN[C@H](CO)C1 [Example 475, 4-[[3-[2,3-difluoro-4-(2-pyridyloxy)phenyl]imidazo [1,2-a]pyrazin-8-yl]amino]-2-ethyl-N-[3-[(3S)-3-(hydroxymethyl)piperazin-1-yl]-3-oxo-propyl]benzamide]	0.41
CCc1cc(Nc2nccn3c(-c4ccc(Oc5ccc(F)cn5)c(F)c4F)cnc23)ccc1C(=O)NCCNC(=O)CCN [Example 425, N-[2-(3-aminopropanoylamino)ethyl]-4-[[3-[2,3-difluoro-4-[(5-fluoro-2-pyridyl)oxy]phenyl]imidazo [1,2-a]pyrazin-8-yl]amino]-2-ethyl-benzamide; formic acid]	0.6
CN(C)C(=O)c1ccc(Nc2nccn3c(-c4ccc(OC(F)F)cc4)cnc23)cc1CO [Example 259, 4-[[3-[4-(difluoromethoxy)phenyl]im-idazo[1,2-a]pyrazin-8-yl]amino]-2-(hydroxymethyl)-N,N-dimethylbenzamide]	4.1

Same assay, conditions: Acinetobacter baumannii, ATCC17978, 16 h, read-out: ATCC17978 IC90 [μM]

SMILES	IC90 [µM]
CCOP(=O)(OCC)N1CCC(CCN(C)C(=O)c2ccc(Nc3nccn4c(-c5ccc(OC(F)F)cc5)cnc34)cc2C)CC1 [Example 115, N-[2-(1-diethoxyphosphoryl-4-piperidyl)ethyl]-4-[[3-[4-(difluoromethoxy)phenyl]imidazo[1,2-a]pyrazin-8-yl]amino]-N,2-dimethyl-benzamide]	0.85
